From PMC4163382, “Symbiotic Plant Peptides Eliminate Candida albicans Both In Vitro and in an Epithelial Infection Model and Inhibit the Proliferation of Immortalized Human Cells” (BioMed Research International, 2014)
Ends that are not written are not given here. Peptide text beside a SMILES is read from it.

Tests used:
[1] = system: C. albicans WO-1; format: cell-based, Candida albicans; conditions: for Minimal fungicidal concentration, 3 h: WO-1, 3 h; for Minimal fungicidal concentration, 24 h: WO-1, 24 h
Experimental: (§1) The antifungal activity of the NCR peptides against C. albicans strains and other Candida species was determined in vitro using 96-well flat bottom microtiter plates (Sarstedt). Fifty microliters of dilutions from each peptide (final concentrations in the assays ranged from 2.5 to 100 μg/mL) was added to 50 μL of 10^4 cells mL^−1 and 10^5 cells mL^−1 in LSM. The plates were incubated at 30°C and the peptide concentrations that prevented the germination of yeast cells were determined by microscopic analysis and measurement of absorbance at 600 nm with a microtiter plate reader (FLUOstar OPTIMA; BMG Labtech) after 24 and 48 hours. Minimal inhibitory concentration (MIC) was determined as the lowest concentration of the peptide at which there was no visible and measurable growth after 24 hours of incubation. To determine whether the antifungal effect was fungistatic or fungicidal, 10 μL from each treatment was dropped onto solid YPD plate after 3 and 24 hours. Plates were incubated at 30°C for 48 hours and developing colonies were observed. Minimal fungicidal concentration (MFC) was defined where no fungal growth could be observed.

[2] = system: C. albicans strains WO-1 and Sc 5314; assay: Microdilution antifungal assay, summary for C. albicans; format: cell-based, Candida albicans; conditions: for Anticandidal activity against the yeast form of growing C. albicans: strains WO-1 and Sc 5314, LSM medium, microdilution plate assay
Experimental: as §1

[3] = system: PK E6/E7 vaginal epithelial cells; assay: MTT assay, cytotoxicity on human epithelial cells; format: cell-based; conditions: 10 μg/mL, MTT assay, cytotoxic control
Experimental: The immortalized human vaginal epithelial cell line PK E6/E7 [15] was cultured in serum-free CKM supplemented with 0.005 μg/mL recombinant epidermal growth factor, 50 μg/mL bovine pituitary extract, L-glutamine, and antibiotic/antimycotic solution (Life Technologies) in a CO2 thermostat at 37°C [16]. Cells at 60–70% confluence were used in subsequent experiments.
MTT Assay. PK E6/E7 vaginal epithelial cells were seeded in the wells of a 96-well plate at a density of 1 × 10^4 cells per well in a final volume of 100 μL. CKM was then aspirated and 100 μL of the appropriate peptide diluted in PBgluc was added. After 3 hours of incubation at 37°C, the peptide solution was removed, and the cells were let to regenerate in CKM for 24 hours. Then 5 mg/mL 3-[4,5-dimethylthiazol-2-yl]-2,5-diphenyltetrazolium bromide (MTT) was added to each well and the plate was placed to 37°C for 4 hours. The amount of formazan formed by the activity of the mitochondrial succinate dehydrogenase of living cells was measured by using a microtiter plate reader (FLUOstar OPTIMA) at the wavelength of 560 nm.
10 μg/mL of primycin, a macrolide lactone antibiotic complex that rapidly kills PK cells, was used as a control for cytotoxicity in both assays.
MTT assays and impedance measurements were performed in at least four technical parallels and two biological replicates; all the data are presented as mean ± standard deviation. Significance was calculated with Newman-Keuls post hoc test using the GraphPad Prism version 5 for Windows and a probability (P) value of less than 0.05 was considered significant.

Row | Molecule | Minimal fungicidal concentration, 3 h [1] | Minimal fungicidal concentration, 24 h [1] | Anticandidal activity against the yeast form of growing C. albicans [2] | Efficiency of killing epithelial cells [3] | MIC ([2]; Candida albicans, SC5314, comparator value given in text, strain, method and source not given, read-out: MIC of amphotericin B) [µM] | MIC of amphotericin B ([2]; comparator value given in text, strain, method and source not given)
1 | ITISNSSFGRIVYWNCKTDKDCKQHRGFNFRCRSGNCIPIRR (cysteines drawn unpaired) [NCR183] | 16.5 (±12) μg/mL | 15.5 (±13) μg/mL | exhibited anticandidal activity | – | – | –
2 | CC[C@H](C)[C@H](NC(=O)[C@H](Cc1ccc(O)cc1)NC(=O)[C@H](CC(N)=O)NC(=O)[C@H](CCCNC(=N)N)NC(=O)[C@@H](NC(=O)[C@H](CCC(N)=O)NC(=O)[C@H](CCCNC(=N)N)NC(=O)[C@H](CS)NC(=O)[C@H](CC(=O)O)NC(=O)[C@H](CCCCN)NC(=O)[C@H](CC(N)=O)NC(=O)[C@@H](NC(=O)[C@@H](NC(=O)[C@H](CS)NC(=O)[C@H](CC(N)=O)NC(=O)[C@H](CCCNC(=N)N)NC(=O)[C@H](CO)NC(=O)[C@@H](NC(=O)[C@@H]1CCCN1C(=O)[C@H](CC(C)C)NC(=O)[C@H](Cc1ccccc1)NC(=O)[C@H](C)N)[C@@H](C)O)[C@@H](C)CC)[C@@H](C)O)C(C)C)C(=O)N[C@@H](C)C(=O)N[C@@H](CCCNC(=N)N)C(=O)N[C@@H](CS)C(=O)N[C@@H](CCCNC(=N)N)C(=O)N[C@@H](CCCCN)C(=O)NCC(=O)N[C@@H](CCC(N)=O)C(=O)N[C@@H](CS)C(=O)N[C@@H](CC(C)C)C(=O)N[C@@H](CCC(N)=O)C(=O)N[C@@H](CO)C(=O)N1CCC[C@H]1C(=O)N[C@H](C(=O)N[C@@H](CCCNC(=N)N)C(=O)O)C(C)C [NCR030] (H-AFLPTSRNCITNKDCRQVRNYIARCRKGQCLQSPVR-OH; N-terminus and C-terminus assumed) | 12.5 (±2) μg/mL | 16.5 (±5) μg/mL | exhibited anticandidal activity | – | – | –
3 | primycin [reference compound] | – | – | – | about 90% | – | –
4 | CC[C@H](C)[C@H](N)C(=O)N[C@@H](Cc1ccc(O)cc1)C(=O)N[C@@H](Cc1ccccc1)C(=O)N1CCC[C@H]1C(=O)N[C@H](C(=O)N[C@@H](CO)C(=O)N[C@@H](CCCNC(=N)N)C(=O)N1CCC[C@H]1C(=O)N[C@@H](CS)C(=O)N[C@H](C(=O)N[C@H](C(=O)N[C@@H](CC(=O)O)C(=O)N[C@@H](CCCCN)C(=O)N[C@@H](CC(=O)O)C(=O)N[C@@H](CS)C(=O)N1CCC[C@H]1C(=O)N[C@@H](CC(N)=O)C(=O)N[C@@H](CCSC)C(=O)N[C@@H](CCCCN)C(=O)N[C@@H](Cc1c[nH]cn1)C(=O)N[C@@H](Cc1ccc(O)cc1)C(=O)N[C@@H](CCCCN)C(=O)N[C@@H](C)C(=O)N[C@@H](CCCCN)C(=O)N[C@@H](CS)C(=O)N[C@@H](CCCNC(=N)N)C(=O)N[C@@H](CCCCN)C(=O)NCC(=O)N[C@@H](Cc1ccccc1)C(=O)N[C@@H](CS)C(=O)N[C@H](C(=O)N[C@@H](CO)C(=O)N[C@@H](CO)C(=O)N[C@@H](CCCNC(=N)N)C(=O)N[C@H](C(=O)N[C@@H](CCCNC(=N)N)C(=O)O)C(C)C)[C@@H](C)CC)[C@@H](C)O)[C@@H](C)CC)C(C)C [NCR147] (H-IYFPVSRPCITDKDCPNMKHYKAKCRKGFCISSRVR-OH; N-terminus and C-terminus assumed) | 8 (±6.5) μg/mL | 9 (±4) μg/mL | exhibited anticandidal activity | – | – | –
5 | CC[C@H](C)[C@H](NC(=O)[C@H](CC(N)=O)NC(=O)[C@H](Cc1c[nH]cn1)NC(=O)[C@@H]1CCCN1C(=O)[C@@H]1CCCN1C(=O)[C@H](CCSC)NC(=O)[C@H](CCCNC(=N)N)NC(=O)[C@@H]1CCCN1C(=O)[C@H](CS)NC(=O)[C@H](CC(=O)O)NC(=O)[C@H](CCCCN)NC(=O)[C@H](CC(=O)O)NC(=O)[C@@H](NC(=O)[C@H](CC(C)C)NC(=O)[C@H](CS)NC(=O)[C@@H]1CCCN1C(=O)[C@H](CCCNC(=N)N)NC(=O)[C@H](CC(C)C)NC(=O)[C@@H](NC(=O)[C@@H](N)CCSC)[C@@H](C)O)[C@@H](C)O)C(=O)N[C@@H](CCCCN)C(=O)N[C@@H](CS)C(=O)N[C@@H](CCCNC(=N)N)C(=O)N[C@@H](CCCCN)C(=O)NCC(=O)N[C@@H](Cc1c[nH]cn1)C(=O)N[C@@H](CS)C(=O)N[C@H](C(=O)N1CCC[C@H]1C(=O)N[C@H](C(=O)NCC(=O)N[C@@H](CCCCN)C(=O)N1CCC[C@H]1C(=O)N[C@@H](Cc1ccccc1)C(=O)N[C@@H](CCCCN)C(=O)O)[C@@H](C)CC)C(C)C [NCR137] (H-MTLRPCLTDKDCPRMPPHNIKCRKGHCVPIGKPFK-OH; N-terminus and C-terminus assumed) | 20 (±2.5) μg/mL | 25 (±3) μg/mL | exhibited anticandidal activity | – | – | –
6 | C[C@@H]1[C@H](O)[C@@H](C)/C=C/C=C/C=C/C=C/C=C/C=C/C=C/[C@H](O[C@@H]2O[C@H](C)[C@@H](O)[C@H](N)[C@@H]2O)C[C@@H]2O[C@](O)(C[C@@H](O)C[C@@H](O)[C@H](O)CC[C@@H](O)C[C@@H](O)CC(=O)O[C@H]1C)C[C@H](O)[C@H]2C(=O)O [amphotericin B, reference compound] | – | – | – | – | 1.69 | ~ 1.7 μM
7 | CC[C@H](C)[C@H](NC(=O)[C@H](CCCNC(=N)N)NC(=O)[C@H](CCCNC(=N)N)NC(=O)[C@H](CCCNC(=N)N)NC(=O)[C@@H](NC(=O)[C@H](CS)NC(=O)[C@H](Cc1ccc(O)cc1)NC(=O)CNC(=O)[C@H](CCCCN)NC(=O)[C@H](CCCNC(=N)N)NC(=O)[C@H](CS)NC(=O)[C@H](CCCNC(=N)N)NC(=O)[C@H](C)NC(=O)[C@H](CCCNC(=N)N)NC(=O)[C@H](Cc1ccc(O)cc1)NC(=O)[C@H](CC(N)=O)NC(=O)[C@H](CCCCN)NC(=O)[C@@H](NC(=O)[C@@H](NC(=O)[C@H](CO)NC(=O)[C@H](CS)NC(=O)[C@H](CCC(=O)O)NC(=O)[C@H](CCCCN)NC(=O)[C@H](CC(=O)O)NC(=O)[C@H](CO)NC(=O)[C@@H](NC(=O)[C@H](CS)NC(=O)[C@@H]1CCCN1C(=O)[C@H](CCCCN)NC(=O)[C@H](CO)NC(=O)[C@H](CC(C)C)NC(=O)[C@H](CCC(N)=O)NC(=O)[C@@H](NC(=O)[C@H](Cc1ccccc1)NC(=O)[C@H](C)N)[C@@H](C)CC)[C@@H](C)CC)[C@@H](C)CC)C(C)C)C(C)C)C(=O)N[C@@H](CCCNC(=N)N)C(=O)O [NCR044] (H-AFIQLSKPCISDKECSIVKNYRARCRKGYCVRRRIR-OH; N-terminus and C-terminus assumed) | 11 (±2) μg/mL | 6.25 (±1) μg/mL | exhibited anticandidal activity | – | – | –
8 | CSCC[C@H](NC(=O)[C@H](Cc1ccccc1)NC(=O)[C@H](CCCCN)NC(=O)[C@@H]1CCCN1C(=O)[C@H](CS)NC(=O)[C@H](CCCNC(=N)N)NC(=O)CNC(=O)[C@H](CC(=O)O)NC(=O)[C@H](CCCNC(=N)N)NC(=O)CNC(=O)[C@H](CS)NC(=O)[C@H](CC(C)C)NC(=O)[C@@H](NC(=O)[C@H](CCCNC(=N)N)NC(=O)[C@@H](N)CCSC)C(C)C)C(=O)N[C@@H](CS)C(=O)N[C@@H](CCCNC(=N)N)C(=O)N[C@H](C(=O)N[C@@H](Cc1ccccc1)C(=O)N[C@@H](CC(C)C)C(=O)O)[C@@H](C)O [NCR280] (H-MRVLCGRDGRCPKFMCRTFL-OH) | 10 (±2) μg/mL | 8 (±3) μg/mL | – | – | – | –
